Test results as given in patent US20260053171A1, “METHANOGEN INHIBITORS” (AGRIZERONZ LIMITED PARTNERSHIP, priority 2022, published 2026).

System: methane production in rumen fluid
Test: Rumen in vitro (RIV) assay, methane production from rumen fluid incubations
Format: cell-based, cattle
Conditions: for inhibition (methane, RIV positive control): 30 μM; for inhibition at 50 µM / inhibition at 10 µM / inhibition at 2 µM: Bos taurus, read-out: RIV % methane reduction +/− SD
Experimental: The compounds of the present invention were initially screened for activity using an in vitro fully automated incubation system for the measurement of total gas production and gas composition (methane and hydrogen). The system used is described in detail in the paper by Muetzel et al. (2014; Animal Feed Science and Technology 196, 1-11). The system in this specification is referred to as the rumen in vitro system or RIV. The RIV system provides a relatively simple tool for determining the rate and production of methane and also whether the rate and production of methane is inhibited or reduced by a particular compound or feed. Rumen in vitro assays use rumen fluid from donor animals (typically either sheep or cattle) which is typically combined with a buffer and then incubated in sealed fermentation vessels at 39° C. for either 24 or 48 h. These assays systems have been well-characterised and used by the scientific community over the last two decades (Rymer et al. 2005). The system that has been used here to characterise the effects of inhibitors on methane production and gas production, and the formation of H2, was described by Muetzel et al. (2014). Rumen in vitro assay systems reflect what can occur in the rumen in vivo, but only short-term, due to their short incubation times (typically not exceeding 48 h) which is limited by its buffering capacity and the fact that it is a closed system. Stock solutions of inhibitors were re-suspended in dimethylformamide (DMF) at concentrations 1000-fold higher than the highest used for the assays. Any further dilutions were also prepared using DMF. The total amount of inhibitor solution added to the rumen fluid-buffer mixture (60 mL) was 60 μl. Incubations used 60 ml of medium containing 12 ml of filtered rumen fluid and 48 ml of buffer in serum bottles for 24-48 h, essentially as described by Muetzel et al. (2014). Two fistulated cattle were used as donor animals for rumen fluid and treatments were incubated in duplicate bottles. Sets of duplicate incubation vials that contained ryegrass (with rumen fluid-buffer mixture), and ryegrass with 30 μM bromoethanesulfonate (BES) were also incubated as negative and positive controls, respectively. One experiment consists of 2 replicates of an inhibitor at any one concentration run at the same time, and a run can contain up to 32 bottle, including positive (30 µM BES) and negative (no inhibitor added) controls. Compound 1, for example, was tested using the 60 mL rumen in vitro assay system at 50 μM, 10 μM, and 2 μM final concentrations and compared to a positive control with 30 µM BES.

Structure (SMILES) | inhibition (methane, RIV positive control) (at 10 hours) [%] | inhibition (methane, RIV positive control) (at 18 hours) [%] | inhibition at 50 µM [%] | inhibition at 10 µM [%] | inhibition at 2 µM [%]
O=S(=O)(O)CCBr [BES, bromoethanesulfonate, reference compound] | 70.5 | 55.6 | – | – | –
O=C(O)CCC(=O)N1N=C(c2ccc(Cl)cc2)CC1c1ccc2nccnc2c1 (stereo not drawn) [Compound 1, 4-(3-(4-Chlorophenyl)-5-(quinoxalin-6-yl)-4,5-dihydro-1H-pyrazol-1-yl)-4-oxobutanoic acid] | – | – | 37.6 ± 1.3 | – | –
O=C(O)CCC(=O)N1N=C(c2ccccc2)CC1c1ccc2nccnc2c1 (stereo not drawn) [Compound 1A, 4-Oxo-4-(3-phenyl-5-(quinoxalin-6-yl)-4,5-dihydro-1H-pyrazol-1-yl)butanoic acid] | – | – | < 5 | – | –
Cc1ccc(C2=NN(C(=O)CCC(=O)O)C(c3ccc4nccnc4c3)C2)cc1 (stereo not drawn) [Compound 2] | – | – | 13.9 | – | –
CC(C)c1ccc(C2=NN(C(=O)CCC(=O)O)C(c3ccc4nccnc4c3)C2)cc1 (stereo not drawn) [Compound 3, 4-(3-(4-Isopropylphenyl)-5-(quinoxalin-6-yl)-4,5-dihydro-1H-pyrazol-1-yl)-4-oxobutanoic acid] | – | – | 78.6 ± 1.1 | 5.5 ± 2.8 | –
O=C(O)CCC(=O)N1N=C(c2ccc(C3CCCCC3)cc2)CC1c1ccc2nccnc2c1 (stereo not drawn) [Compound 4, 4-(3-(4-Cyclohexylphenyl)-5-(quinoxalin-6-yl)-4,5-dihydro-1H-pyrazol-1-yl)-4-oxobutanoic acid] | – | – | 79.5 ± 4.4 | < 5 | –
O=C(O)CCC(=O)N1N=C(c2ccc(C(F)(F)F)cc2)CC1c1ccc2nccnc2c1 (stereo not drawn) [Compound 5, 4-Oxo-4-(5-(quinoxalin-6-yl)-3-(4-(trifluoromethyl)phenyl)-4,5-dihydro-1H-pyrazol-1-yl)butanoic acid] | – | – | 46.5 ± 2.7 | – | –
COc1ccc(C2=NN(C(=O)CCC(=O)O)C(c3ccc4nccnc4c3)C2)cc1 (stereo not drawn) [Compound 6, 4-(3-(4-Methoxyphenyl)-5-(quinoxalin-6-yl)-4,5-dihydro-1H-pyrazol-1-yl)-4-oxobutanoic acid] | – | – | 5.6 ± 2 | – | –
O=C(O)CCC(=O)N1N=C(c2ccc(Oc3ccccc3)cc2)CC1c1ccc2nccnc2c1 (stereo not drawn) [Compound 7, 4-Oxo-4-(3-(4-phenoxyphenyl)-5-(quinoxalin-6-yl)-4,5-dihydro-1H-pyrazol-1-yl)butanoic acid] | – | – | 66.4 ± 14.7 | 30.7 ± 3.6 | –
O=C(O)CCC(=O)N1N=C(c2ccc(OC(F)(F)F)cc2)CC1c1ccc2nccnc2c1 (stereo not drawn) [Compound 8, 4-Oxo-4-(5-(quinoxalin-6-yl)-3-(4-(trifluoromethoxy)phenyl)-4,5-dihydro-1H-pyrazol-1-yl)butanoic acid] | – | – | 75.2 ± 1.6 | 22.6 ± 2.8 | –
O=C(O)CCC(=O)N1N=C(c2ccc(Br)cc2)CC1c1ccc2nccnc2c1 (stereo not drawn) [Compound 9, 4-(3-(4-Bromophenyl)-5-(quinoxalin-6-yl)-4,5-dihydro-1H-pyrazol-1-yl)-4-oxobutanoic acid] | – | – | 64.9 ± 1.9 | – | –
O=C(O)CCC(=O)N1N=C(c2ccc(Cl)cc2Cl)CC1c1ccc2nccnc2c1 (stereo not drawn) [Compound 10, 4-(3-(2,4-Dichlorophenyl)-5-(quinoxalin-6-yl)-4,5-dihydro-1H-pyrazol-1-yl)-4-oxobutanoic acid] | – | – | 64 ± 0.6 | – | –
O=C(O)CCC(=O)N1N=C(c2ccc(Cl)c(Cl)c2)CC1c1ccc2nccnc2c1 (stereo not drawn) [Compound 11, 4-(3-(3,4-Dichlorophenyl)-5-(quinoxalin-6-yl)-4,5-dihydro-1H-pyrazol-1-yl)-4-oxobutanoic acid] | – | – | 62.8 ± 3.4 | – | –
O=C(O)CCC(=O)N1N=C(c2ccccc2-c2ccccc2)CC1c1ccc2nccnc2c1 (stereo not drawn) [Compound 12, 4-(3-([1,1′-Biphenyl]-2-yl)-5-(quinoxalin-6-yl)-4,5-dihydro-1H-pyrazol-1-yl)-4-oxobutanoic acid] | – | – | 95.9 ± 0.9 | 51.6 ± 1.5 | –
O=C(O)CCC(=O)N1N=C(c2cccc(-c3ccccc3)c2)CC1c1ccc2nccnc2c1 (stereo not drawn) [Compound 13, 4-(3-([1,1′-Biphenyl]-3-yl)-5-(quinoxalin-6-yl)-4,5-dihydro-1H-pyrazol-1-yl)-4-oxobutanoic acid] | – | – | 97.2 ± 0.1 | 74.4 ± 3.3 | 5 ± 0.4
O=C(O)CCC(=O)N1N=C(c2cccc(-c3ccc(OC(F)(F)F)cc3)c2)CC1c1ccc2nccnc2c1 (stereo not drawn) [Compound 14, 4-Oxo-4-(5-(quinoxalin-6-yl)-3-(4′-(trifluoromethoxy)-[1,1′-biphenyl]-3-yl)-4,5-dihydro-1H-pyrazol-1-yl)butanoic acid] | – | – | 95.4 | 72.4 ± 0.8 | < 5
O=C(O)CCC(=O)N1N=C(c2ccc(-c3ccccc3)cc2)CC1c1ccc2nccnc2c1 (stereo not drawn) [Compound 15, 4-(3-([1,1′-Biphenyl]-4-yl)-5-(quinoxalin-6-yl)-4,5-dihydro-1H-pyrazol-1-yl)-4-oxobutanoic acid] | – | – | 87.8 ± 1.6 | 60.1 ± 1 | < 5
O=C(O)CCC(=O)N1N=C(c2ccc(-c3ccc(F)cc3)cc2)CC1c1ccc2nccnc2c1 (stereo not drawn) [Compound 16, 4-(3-(4′-Fluoro-[1,1′-biphenyl]-4-yl)-5-(quinoxalin-6-yl)-4,5-dihydro-1H-pyrazol-1-yl)-4-oxobutanoic acid] | – | – | 96.6 ± 0.2 | 77.5 ± 2.1 | < 5
O=C(O)CCC(=O)N1N=C(c2ccc(-c3ccccc3Cl)cc2)CC1c1ccc2nccnc2c1 (stereo not drawn) [Compound 17, 4-(3-(2′-Chloro-[1,1′-biphenyl]-4-yl)-5-(quinoxalin-6-yl)-4,5-dihydro-1H-pyrazol-1-yl)-4-oxobutanoic acid] | – | – | 90 ± 1.2 | 74.2 ± 7.8 | < 5
O=C(O)CCC(=O)N1N=C(c2ccc(-c3cccc(Cl)c3)cc2)CC1c1ccc2nccnc2c1 (stereo not drawn) [Compound 18, 4-(3-(3′-Chloro-[1,1′-biphenyl]-4-yl)-5-(quinoxalin-6-yl)-4,5-dihydro-1H-pyrazol-1-yl)-4-oxobutanoic acid] | – | – | 94.1 ± 0.1 | 83.6 ± 1.5 | < 5
O=C(O)CCC(=O)N1N=C(c2ccc(-c3ccc(C(F)(F)F)cc3)cc2)CC1c1ccc2nccnc2c1 (stereo not drawn) [Compound 20, 4-Oxo-4-(5-(quinoxalin-6-yl)-3-(4′-(trifluoromethyl)-[1,1′-biphenyl]-4-yl)-4,5-dihydro-1H-pyrazol-1-yl)butanoic acid] | – | – | – | 37.2 ± 5.9 | –
O=C(O)CCC(=O)N1N=C(c2ccc(-c3cccc(OC(F)(F)F)c3)cc2)CC1c1ccc2nccnc2c1 (stereo not drawn) [Compound 21, 4-Oxo-4-(5-(quinoxalin-6-yl)-3-(3′-(trifluoromethoxy)-[1,1′-biphenyl]-4-yl)-4,5-dihydro-1H-pyrazol-1-yl)butanoic acid] | – | – | 97.9 | 91.9 ± 1.5 | 15.8 ± 1.1
O=C(O)CCC(=O)N1N=C(c2ccc(-c3ccc(OC(F)(F)F)cc3)cc2)CC1c1ccc2nccnc2c1 (stereo not drawn) [Compound 22, 4-Oxo-4-(5-(quinoxalin-6-yl)-3-(4′-(trifluoromethoxy)-[1,1′-biphenyl]-4-yl)-4,5-dihydro-1H-pyrazol-1-yl)butanoic acid] | – | – | 94.7 ± 0.8 | 85.1 ± 0.8 | 23.8 ± 1.1
Cc1ccc(-c2ccc(C3=NN(C(=O)CCC(=O)O)C(c4ccc5nccnc5c4)C3)cc2)cc1 (stereo not drawn) [Compound 23, 4-(3-(4′-Methyl-[1,1′-biphenyl]-4-yl)-5-(quinoxalin-6-yl)-4,5-dihydro-1H-pyrazol-1-yl)-4-oxobutanoic acid] | – | – | 94.8 ± 0.4 | 69 ± 3.7 | –
CC(C)c1ccc(-c2ccc(C3=NN(C(=O)CCC(=O)O)C(c4ccc5nccnc5c4)C3)cc2)cc1 (stereo not drawn) [Compound 24, 4-(3-(4′-Isopropyl-[1,1′-biphenyl]-4-yl)-5-(quinoxalin-6-yl)-4,5-dihydro-1H-pyrazol-1-yl)-4-oxobutanoic acid] | – | – | 97.8 ± 0.05 | 94.1 ± 0.3 | 21.8
COc1ccc(-c2ccc(C3=NN(C(=O)CCC(=O)O)C(c4ccc5nccnc5c4)C3)cc2)cc1 (stereo not drawn) [Compound 25, 4-(3-(4′-Methoxy-[1,1′-biphenyl]-4-yl)-5-(quinoxalin-6-yl)-4,5-dihydro-1H-pyrazol-1-yl)-4-oxobutanoic acid] | – | – | – | 83.7 ± 0.4 | < 5
O=C(O)CCC(=O)N1N=C(c2ccc(-c3ccc(Cl)cc3Cl)cc2)CC1c1ccc2nccnc2c1 (stereo not drawn) [Compound 26, 4-(3-(2′,4′-Dichloro-[1,1′-biphenyl]-4-yl)-5-(quinoxalin-6-yl)-4,5-dihydro-1H-pyrazol-1-yl)-4-oxobutanoic acid] | – | – | 96 ± 1.1 | 65.8 ± 3.7 | –
